Test results taken from patent US12590099B2, “Inhibitors of histone deacetylase useful for the treatment or prevention of HIV infection” (Merck Sharp & Dohme LLC, priority 2018, dated 2026).
Like-named read-outs stand apart in the source and are kept apart here.

Assays:
Recombinant human HDAC8 = biological target: T1, Recombinant human HDAC8 (Homo sapiens, UniProt Q9BY41); experiment: Human HDAC enzyme inhibitor Fluor-de-Lys assay, HDAC8; format: biochemical
T1 construct: purchased Enzo Life Sciences BML-SE145-0100
T1 sequence (Q9BY41 1-377): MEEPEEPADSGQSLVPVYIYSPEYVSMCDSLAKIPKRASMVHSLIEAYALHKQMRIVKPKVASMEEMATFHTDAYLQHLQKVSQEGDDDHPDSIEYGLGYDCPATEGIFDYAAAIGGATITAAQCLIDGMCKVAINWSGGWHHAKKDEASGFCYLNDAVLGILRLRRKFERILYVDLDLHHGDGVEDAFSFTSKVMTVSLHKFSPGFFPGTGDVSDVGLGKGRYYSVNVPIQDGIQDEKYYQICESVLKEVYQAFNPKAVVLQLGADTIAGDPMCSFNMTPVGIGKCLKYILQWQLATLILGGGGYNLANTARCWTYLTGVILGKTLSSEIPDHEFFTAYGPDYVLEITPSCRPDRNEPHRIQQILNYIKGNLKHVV

Recombinant human HDAC2 = biological target: T2, Recombinant human HDAC2 (Homo sapiens, UniProt Q92769); experiment: Human HDAC enzyme inhibitor Fluor-de-Lys assay, HDAC2; format: biochemical
T2 construct: Full length human HDAC2-FLAG was expressed in baculovirus infected Sf9 cells; FLAG (C); made in house; host or cells: Sf9 (baculovirus)
T2 sequence (Q92769 whole entry): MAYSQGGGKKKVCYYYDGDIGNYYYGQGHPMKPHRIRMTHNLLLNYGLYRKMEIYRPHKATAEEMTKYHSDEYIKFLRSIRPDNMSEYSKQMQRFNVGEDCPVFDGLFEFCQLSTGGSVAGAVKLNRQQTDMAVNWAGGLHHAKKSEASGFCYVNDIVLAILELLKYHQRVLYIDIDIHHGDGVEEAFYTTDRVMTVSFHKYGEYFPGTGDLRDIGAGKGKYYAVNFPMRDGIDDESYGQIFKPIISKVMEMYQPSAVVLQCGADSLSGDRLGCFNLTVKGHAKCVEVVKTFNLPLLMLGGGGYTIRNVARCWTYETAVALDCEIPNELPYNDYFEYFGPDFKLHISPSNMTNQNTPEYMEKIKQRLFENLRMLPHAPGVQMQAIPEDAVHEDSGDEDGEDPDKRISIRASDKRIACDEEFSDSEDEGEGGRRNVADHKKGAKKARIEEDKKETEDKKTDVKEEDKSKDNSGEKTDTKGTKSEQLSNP
Experimental: (§1) Human HDAC Enzyme Inhibitor Fluor-De-Lys Assay
(§2) Recombinant human HDAC8 (BML-SE145-0100) and HDAC10 (BML-SE559-0050) enzymes, HDAC substrates BML-KI104 and BML-KI178, and HDAC developer solutions BML-KI105 and BML-KI176 were purchased from Enzo Life Sciences. […] HDAC inhibitor suberoylanilide hydroxamic acid (SAHA) was obtained from Indofine and trichostatin A (TSA) was obtained from Sigma-Aldrich.
(§3) Recombinant human HDAC1, HDAC2, and HDAC3/SMRT heterodimer were prepared by Merck Research Laboratories. […] The eluted protein was then passed over an anti-HDAC1 immunoaffinity column to remove any complexes containing HDAC1. […]
(§4) The histone deacetylase activities of HDAC1, HDAC2, HDAC3, HDAC6, and HDAC8 were measured in modified FLUOR DE LYS assays in 384-well format. In this assay, HDAC enzymes are initially incubated with an ε-acetyl (or -trifluoroacetyl)-L-lysine-containing substrate with a C-terminal amide having aminomethylcoumarin as the amine component. HDACs cleave the ε-acetyl group, rendering the resulting product susceptible to AMC cleavage by trypsin. The released AMC is then detected by its fluorescence.
(§5) The HDAC3/SMRT assay employed buffer B, consisting of 20 mM HEPES, pH 8.0, 1 mM MgCl2, 50 mM NaCl, 2.7 mM KCl, 0.05% BSA, 0.005% Tween 20, and 10 μM IP4. […] The HDAC8 assay employed buffer D, consisting of 20 mM HEPES, pH 8.0, 1 mM MgCl2, 100 mM NaCl, 20 mM KCl, 0.10% n-octyl-β-D-glucoside (Anatrace) and 0.05% BSA. All steps were performed at room temperature (23° C.). The assay was performed by pre-incubating serial dilutions of test compounds with the target HDAC prior to initiation with substrate. Each compound was titrated in a 10-point dose response, using a 1:3 fold dilution scheme, with 0.15 ul of solution added by ECH0555 to the plate, followed by the addition of 20 μl of the appropriate HDAC isoform diluted in appropriate assay buffer. […] Final conditions used for each assay were: 1. HDAC 1, 0.3 nM total enzyme, 20 μM substrate BML-KI104; 2. […] HDAC 3/SMRT, 0.3 nM total enzyme, 20 μM substrate BML-KI104; 4. […] The reactions were stopped and developed by addition of 30 ul of HDAC developer solution containing a saturating level of HDAC inhibitor as follows: 1.

Recombinant human HDAC1 = biological target: T3, Recombinant human HDAC1 (Homo sapiens, UniProt Q13547); experiment: Human HDAC enzyme inhibitor Fluor-de-Lys assay, HDAC1; format: biochemical; conditions: recombinant human HDAC1, Fluor-de-Lys assay
T3 construct: FLAG (C); made in house
T3 sequence (Q13547 whole entry): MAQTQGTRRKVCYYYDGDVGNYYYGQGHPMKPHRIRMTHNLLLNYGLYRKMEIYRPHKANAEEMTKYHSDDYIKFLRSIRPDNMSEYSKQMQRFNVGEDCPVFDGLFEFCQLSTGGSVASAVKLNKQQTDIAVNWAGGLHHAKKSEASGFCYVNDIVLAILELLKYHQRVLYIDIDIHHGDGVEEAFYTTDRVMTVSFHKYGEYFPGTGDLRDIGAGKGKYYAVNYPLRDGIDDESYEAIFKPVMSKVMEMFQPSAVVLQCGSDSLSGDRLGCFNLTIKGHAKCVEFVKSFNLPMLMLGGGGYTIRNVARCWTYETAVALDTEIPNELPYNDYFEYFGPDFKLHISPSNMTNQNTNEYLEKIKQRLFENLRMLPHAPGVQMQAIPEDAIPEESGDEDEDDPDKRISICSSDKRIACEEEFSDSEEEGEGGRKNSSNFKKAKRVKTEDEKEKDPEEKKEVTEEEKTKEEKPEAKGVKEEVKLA
Experimental: as §1, §2, §3, §4, §5

HDAC6 = biological target: T4, HDAC6 (Homo sapiens, UniProt Q9UBN7); experiment: Human HDAC enzyme inhibitor Fluor-de-Lys assay, HDAC6; format: biochemical
T4 sequence (Q9UBN7 1-1215): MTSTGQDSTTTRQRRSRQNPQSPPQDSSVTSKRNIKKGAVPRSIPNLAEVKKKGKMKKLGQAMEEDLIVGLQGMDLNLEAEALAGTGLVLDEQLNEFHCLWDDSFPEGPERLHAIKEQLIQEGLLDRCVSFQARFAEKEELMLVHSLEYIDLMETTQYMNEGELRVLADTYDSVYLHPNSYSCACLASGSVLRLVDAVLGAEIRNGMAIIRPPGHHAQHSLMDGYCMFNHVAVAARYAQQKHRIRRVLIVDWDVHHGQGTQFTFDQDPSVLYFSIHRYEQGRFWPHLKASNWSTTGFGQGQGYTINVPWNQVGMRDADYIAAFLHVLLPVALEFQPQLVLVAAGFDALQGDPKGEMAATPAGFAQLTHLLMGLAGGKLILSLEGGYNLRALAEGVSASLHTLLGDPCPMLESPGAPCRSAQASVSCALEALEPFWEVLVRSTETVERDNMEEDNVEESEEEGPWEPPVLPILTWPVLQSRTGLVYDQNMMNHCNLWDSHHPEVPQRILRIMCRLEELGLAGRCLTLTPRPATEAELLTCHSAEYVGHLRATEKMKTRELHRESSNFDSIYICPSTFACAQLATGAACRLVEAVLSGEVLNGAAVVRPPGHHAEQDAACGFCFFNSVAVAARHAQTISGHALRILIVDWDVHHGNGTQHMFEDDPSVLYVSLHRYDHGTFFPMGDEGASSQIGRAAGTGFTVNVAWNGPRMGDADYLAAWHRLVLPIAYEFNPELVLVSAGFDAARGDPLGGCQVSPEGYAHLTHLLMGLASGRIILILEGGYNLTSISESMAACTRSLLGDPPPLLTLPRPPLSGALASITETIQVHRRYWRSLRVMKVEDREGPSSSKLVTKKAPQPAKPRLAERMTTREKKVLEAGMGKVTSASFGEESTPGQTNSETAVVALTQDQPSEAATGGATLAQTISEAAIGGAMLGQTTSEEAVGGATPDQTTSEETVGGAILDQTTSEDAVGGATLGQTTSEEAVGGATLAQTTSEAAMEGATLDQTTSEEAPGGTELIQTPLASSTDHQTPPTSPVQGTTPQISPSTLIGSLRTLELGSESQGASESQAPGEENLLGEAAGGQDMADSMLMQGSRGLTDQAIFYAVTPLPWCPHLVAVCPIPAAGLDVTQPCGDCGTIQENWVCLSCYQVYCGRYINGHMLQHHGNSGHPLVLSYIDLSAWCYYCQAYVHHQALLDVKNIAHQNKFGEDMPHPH

[1] = biological target: T5, Recombinant human HDAC3/SMRT heterodimer (Homo sapiens, UniProt O15379); experiment: Human HDAC enzyme inhibitor Fluor-de-Lys assay, HDAC3/SMRT; format: biochemical; conditions: recombinant human HDAC3/SMRT, Fluor-de-Lys assay
T5 construct: FLAG (C); made in house
T5 sequence (O15379 whole entry): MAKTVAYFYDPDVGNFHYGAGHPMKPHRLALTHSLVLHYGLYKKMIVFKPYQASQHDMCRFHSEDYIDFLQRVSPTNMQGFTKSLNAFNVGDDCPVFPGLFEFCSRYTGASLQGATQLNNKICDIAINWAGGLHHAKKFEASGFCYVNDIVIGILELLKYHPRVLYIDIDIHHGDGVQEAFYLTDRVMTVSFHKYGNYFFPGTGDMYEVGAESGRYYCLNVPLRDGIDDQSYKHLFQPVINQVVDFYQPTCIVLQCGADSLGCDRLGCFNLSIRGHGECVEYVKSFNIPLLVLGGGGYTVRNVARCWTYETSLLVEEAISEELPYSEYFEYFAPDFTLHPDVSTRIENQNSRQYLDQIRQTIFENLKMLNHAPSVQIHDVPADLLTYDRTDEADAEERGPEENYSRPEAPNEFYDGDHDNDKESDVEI
T5 sequence (Q9Y618 1-899 partner limits assumed): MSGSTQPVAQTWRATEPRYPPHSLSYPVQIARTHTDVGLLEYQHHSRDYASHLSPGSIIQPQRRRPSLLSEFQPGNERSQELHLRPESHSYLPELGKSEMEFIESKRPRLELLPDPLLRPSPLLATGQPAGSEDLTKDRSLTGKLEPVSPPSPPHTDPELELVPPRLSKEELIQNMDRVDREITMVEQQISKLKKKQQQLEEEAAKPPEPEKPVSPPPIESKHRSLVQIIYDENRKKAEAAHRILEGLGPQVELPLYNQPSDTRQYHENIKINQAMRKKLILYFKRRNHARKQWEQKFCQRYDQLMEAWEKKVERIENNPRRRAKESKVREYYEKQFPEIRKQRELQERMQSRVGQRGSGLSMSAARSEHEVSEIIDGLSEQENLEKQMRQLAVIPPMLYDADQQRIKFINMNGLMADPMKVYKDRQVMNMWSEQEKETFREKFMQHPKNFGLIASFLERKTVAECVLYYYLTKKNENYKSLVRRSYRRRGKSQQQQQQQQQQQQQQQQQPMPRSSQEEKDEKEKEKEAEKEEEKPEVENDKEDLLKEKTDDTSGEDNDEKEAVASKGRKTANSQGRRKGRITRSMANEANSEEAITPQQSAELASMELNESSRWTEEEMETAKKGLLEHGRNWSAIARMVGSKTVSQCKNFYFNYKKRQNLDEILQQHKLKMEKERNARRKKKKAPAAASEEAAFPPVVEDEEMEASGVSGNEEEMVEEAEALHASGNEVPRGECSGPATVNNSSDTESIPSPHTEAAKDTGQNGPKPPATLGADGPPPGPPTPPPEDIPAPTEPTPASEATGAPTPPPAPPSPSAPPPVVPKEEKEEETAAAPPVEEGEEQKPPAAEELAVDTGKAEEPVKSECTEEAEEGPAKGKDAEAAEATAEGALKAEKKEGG

KARN cells (Jurkat 2C4) = experiment: cells; format: cell-based; conditions: Homo sapiens, Jurkat
Summary of the method: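 Jurkat 2C4 (KARN) cells dosed with test compounds up to 40 μM final, 0.4% DMSO, overnight at 5% CO2; luciferase read by Steady-Glo luminescence after 10 min at room temperature. DMSO set as 0% and 2 μM SAHA as 100% induction; 4-parameter fit of percent activation.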

[2] = recombinant human HDAC8, Fluor-de-Lys assay
[3] = recombinant human HDAC2, Fluor-de-Lys assay
[4] = read-out: Karn EC50 (nM) 0.1% NHS, 0.1% normal human serum, luciferase induction, 100% = 2 μM SAHA
[5] = read-out: Karn EC50 (nM) 5% NHS, 5% normal human serum, luciferase induction, 100% = 2 μM SAHA

Row | IC50 (HDAC6; HDAC6, Fluor-de-Lys assay) [nM] | SMILES | IC50 (Recombinant human HDAC8; [2]) [nM] | IC50 (Recombinant human HDAC2; [3]) [nM] | IC50 (Recombinant human HDAC1) [nM] | IC50 [1] [nM] | EC50 (KARN cells (Jurkat 2C4); [4]) [nM] | EC50 (KARN cells (Jurkat 2C4); [5]) [nM] | IC50 (Recombinant human HDAC8) [nM] | IC50 (Recombinant human HDAC2) [nM] | EC50 (KARN cells (Jurkat 2C4); read-out: Karn EC50 (nM) 0.1% NHS, 0.1% normal human serum) [nM] | EC50 (KARN cells (Jurkat 2C4); read-out: Karn EC50 (nM) 5% NHS, 5% normal human serum) [nM] | IC50 (HDAC6) [nM]
1 | 6370 | CCC(=O)CCCCC[C@H](NC(=O)[C@H]1CC12CCN(C)CC2)c1ncc(-c2ccn3ncnc3c2)[nH]1 [Compound 267] | 11600 | 170 | 46.7 |  |  |  |  |  |  |  | 
2 | 8290 | CCC(=O)CCCCC[C@H](NC(=O)[C@H]1CC[C@]2(CC1)OC(=O)c1ncccc12)c1ncc(-c2ccccc2)[nH]1 [Compound 377] | 3010 | 232 | 47.1 | 6.9 |  |  |  |  |  |  | 
3 |  | CCC(=O)CCCCC[C@H](NC(=O)C1NC(=O)CC12CNC2)c1nnc(-c2cc3ccccc3nc2OC)o1 (some centres unmarked) [Compound 304] | 20800 | 8 | 3.59 | 3.23 | 17300 |  |  |  |  |  | 
4 |  | CCC(=O)CCCCC[C@H](NC(=O)C1NC(=O)CC12CN(C)C2)c1nnc(-c2cc3ccccc3nc2OC)o1 (some centres unmarked) [Compound 309] | 24000 | 19.3 | 6.91 | 7.19 | 1350 | 1920 |  |  |  |  | 
5 |  | CCC(=O)CCCCC[C@H](NC(=O)C1NC(=O)CC12CN(C(=O)OC(C)(C)C)C2)c1nnc(-c2cc3ccccc3nc2OC)o1 (some centres unmarked) [Compound 302] | > 45000 | 121 | 49.4 | 37.6 | 4460 | 7430 |  |  |  |  | 
6 |  | CCC(=O)CCCCC[C@H](NC(=O)C1CC12CCN(CC)CC2)c1nc(-c2ccc(F)cc2)[nH]c1-c1cccc(OC)c1 (some centres unmarked) [Compound 246] |  | 769 | 177 | 155 | 1940 | 3770 |  |  |  |  | 
7 | 1470 | CCC(=O)CCCCC[C@H](NC(=O)[C@H]1CC12CCN(C)CC2)c1ncc(-c2ccc3cnc(Cl)cc3c2)[nH]1 [Compound 351] | 5830 | 7.1 | 1.57 | 1.32 |  |  |  |  |  |  | 
8 |  | CCC(=O)CCCCC[C@H](NC(=O)[C@H]1CC12CCN(CC)CC2)c1ncc(-c2cc3cccnc3cc2OC)o1 [Compound 169] |  |  |  |  |  |  | 7580 | 2.2 | 91 | 78 | 83
